US20220079953A1, “METHODS FOR MANAGEMENT OF WEIGHT” (The University of Sydney, priority 2018, published 2022)

What was measured:
[1] = Reinstatement of sucrose-seeking; assay type: in vivo, Sprague Dawley rats; settings: for reinstatement of sucrose seeking: 15 min before session, p<0.001 vs 0 mg/kg reinstatement
Description: Sugar is a highly palatable food component. This contributes greatly to the maintenance of the high sugar diets that can lead to obesity. Once a healthier diet has been established, including cessation of consumption of high sugar foods, it can be difficult for individuals to maintain that healthier diet. Specifically, after a period of not consuming the high sugar foods individuals can again start seeking out and consuming those foods. Here we model this resumption of high-sugar diet consumption using a rat model of reinstatement of sucrose self-administration to assess whether SOC-1 might reduce motivation to resume consumption of high-sugar foods.
Male Sprague Dawley rats were water deprived for 19.5 hours before the start of sucrose self-administration. Water deprivation continued for the first five days of self-administration. Rats were allowed to acquire self-administration of sucrose (10%) during 30-minute FR-1 scheduled sessions for 20 days. Following this, rats were exposed to daily 30-minute extinction sessions. Rats met the extinction criteria (minimum of 10 days and less than 15 active lever presses per session for 2 consecutive days) after 10 sessions. Once the extinction criteria were met, rats underwent reinstatement testing. Each reinstatement test session was separated by two extinction days. Prior to each reinstatement session, rats received an injection of vehicle or SOC-1. Fifteen minutes later, they were placed in the testing chamber, where they had access to 0.3 ml sucrose, which they could lever press for. Rats received SOC-1 in an ascending dose sequence (0, 5, 10 mg/kg, ip). On the reinstatement session subsequent to SOC-1 dose testing, an additional vehicle session was conducted to ensure that rats continued to reinstate to sucrose-seeking behaviour when no treatment was given.

[2] = Progressive ratio consumption of a high-sugar high-fat food (M&Ms) by non-human primates; assay type: in vivo, rhesus monkeys; settings: for trend of breakpoint with increasing doses: 0, 1, 2, 3 mg/kg IM
Description: Individuals who are overweight or obese frequently report intense cravings for, and motivation to, consume food. Here we model the motivational aspects that can drive excessive food-seeking and consumption, which can lead to overweight and obesity by studying rhesus monkeys who must respond under a progressive ratio to receive M&Ms (which are high in both fat and sugar). A progressive ratio requires subjects to work increasingly harder to obtain reinforcement, modelling the intense motivation and craving characteristic of excessive food-seeking and consumption in individuals who are obese, overweight or at risk of being overweight.
Five female rhesus monkeys were trained to press a lever to self-administer M&Ms. Under a progressive ratio, subjects responded for a reinforcer of either 1 or 5 M&Ms. The ratio began at either 25 (two subjects) or 50 (three subjects) responses per reinforcement and increased by 40% after each reinforcer delivery. SOC-1 was administered IM using a within-subjects design whereby all monkeys received doses of 0, 1, 2 and 3 mg/kg SOC-1. One dose per subject was administered prior to each progressive ratio test session. Breakpoint refers to the number of times the monkeys would press the lever to receive a single reinforcer before giving up.

[3] = Sucrose self-administration under FR5 schedule; assay type: in vivo, Sprague Dawley rats; settings: 10% sucrose; for active lever presses / number of sucrose rewards received: 15 min before session, p<0.001
Description: This model induces high levels of sucrose consumption and sucrose seeking in rats, akin to the unhealthy high sugar diets that are a major determinant of obesity. Excessive consumption of sugar-sweetened beverages are especially associated with increased risk of obesity and type 2 diabetes. Thus, the model chosen here is particularly well suited as it involves escalating voluntary consumption of high-sucrose solution by rats, providing both face and construct validity.
Male Sprague Dawley rats were water deprived for 19.5 hours before the start of sucrose self-administration. Water deprivation continued for the first five days of self-administration. Initially, rats were trained during daily 30 minute FR-1 scheduled sessions to lever press for sucrose (10%). Stable responding under the FR-1 schedule was achieved within 10 days. Rats were then transferred to an FR2 and FR3 schedule for a minimum of three days, and then an FR5 schedule until lever pressing stabilised. Subsequently SOC-1 testing began. Each test day was separated by 2-3 FR-5 scheduled sessions. Rats received SOC-1 in an ascending dose sequence (0, 5, and 10 mg/kg, ip), which was administered 15 minutes prior to the test session. On the final test session, rats received a vehicle injection to ensure rats continued to self-administer sucrose at high levels when not receiving treatment with SOC-1.

[4] = Inhibition of weight gain in rats; assay type: in vivo, Sprague Dawley rats; settings: 30 mg/kg oral gavage once daily for 10 days; ad libitum standard chow
Method: 20 adult male Sprague Dawley rats were given ad libitum access to standard rat chow in their home cage over the course of the experiment. Rats were divided into four equally sized groups and were treated once daily with either 0, 5, 10 or 30 mg/kg SOC-1 via oral gavage for 10 days. Body weights were recorded daily.

[5] = Extinction of food reward-associated lever pressing in food restricted rats; assay type: in vivo, Long-Evans rats; settings: all doses tested (5, 10, 20 mg/kg p.o.), 30 min before session
Method: Adult male Long-Evans rats were allowed to feed freely until they reached a target weight of 320-340 g. Rats were then maintained at this weight by restricting feeding. Once target weight had been reached, each rat was placed in an operant test chamber and was trained to press the right lever to receive a 45 mg food pellet under an FR1 schedule of reinforcement during daily 15 min sessions.
Once stable responding (right-side lever pressing+/−10% of the mean of the previous three sessions) had been established, drug testing commenced. Rats were pre-treated with SOC-1 (0, 5, 10, 20 mg/kg) administered by oral gavage (p.o.) 30 min prior to the start of the session.

Compound: Cn1ncc2c1Nc1ccccc1NC2 [SOC-1]
- reinstatement of sucrose seeking ([1]; 5 mg/kg ip): completely prevented reinstatement
- reinstatement of sucrose seeking ([1]; 10 mg/kg ip): completely prevented reinstatement
- inactive lever presses ([1]; reinstatement sessions, any dose (5, 10 mg/kg ip)): no significant effect
- trend of breakpoint with increasing doses ([2]; reinforcement 1 M&M, trend analysis p=0.012): significant linear decrease in breakpoint
- breakpoint (lever presses for a single reinforcer before giving up) ([2]; reinforcement 1 M&M, 2 mg/kg IM, p=0.015 vs 0 mg/kg): significantly reduced the breakpoint
- breakpoint (lever presses for a single reinforcer before giving up) ([2]; reinforcement 1 M&M, 3 mg/kg IM, p=0.014 vs 0 mg/kg): significantly reduced the breakpoint
- trend of breakpoint with increasing doses ([2]; reinforcement 5 M&Ms, trend analysis p=0.025): significant linear decrease in breakpoint
- breakpoint (lever presses for a single reinforcer before giving up) ([2]; reinforcement 5 M&Ms, 3 mg/kg IM, p=0.021 vs 0 mg/kg): significantly reduced the breakpoint
- active lever presses ([3]; 5 mg/kg ip): significantly decreased
- number of sucrose rewards received ([3]; 5 mg/kg ip): significantly decreased
- active lever presses ([3]; 10 mg/kg ip): significantly decreased
- number of sucrose rewards received ([3]; 10 mg/kg ip): significantly decreased
- inactive lever presses ([3]; 5 and 10 mg/kg ip): no significant effect
- weight gain over the 10 treatment days [4]: significantly inhibited weight gain
- non-reinforced responding for a food pellet [5]: significantly reduced
